Source: paper PMC8602566 (Frontiers in Oncology, 2021)
Like-named read-outs stand apart in the source and are kept apart here.

Legend:
HDAC3 = HDAC3 (Homo sapiens, UniProt O15379); experiment: HDACs inhibition assay, HDAC3
Procedure: (§3) The inhibition assays for HDACs were carried out according to standard protocols. […] The reaction was stopped by the addition of 45 μl of 100 mM HEPES (pH 7.5) and 0.08% sodium dodecyl sulfate (SDS). The substrate and the product were then separated electrophoretically using a LabChip 3000 system (Caliper Life Sciences, Hopkinton, MA) with blue laser excitation and green fluorescence detection.

U87 cells = experiment: Cell cycle analysis by flow cytometry; format: cell-based, Human; details: 2.5 μM, 36 h (control 4.6%)
Procedure: […] Cells were detached, fixed in 70% ethanol in PBS (−20°C) overnight and resuspended in PBS supplemented with 100 µg/ml RNase and 50 µg/ml PI for 30 min. Cell cycle analysis was performed on a flow cytometry (FACSCalibur BD, BD Biosciences, San Jose, CA, USA).
Inhibition of HDACs results in anticancer effect through various mechanisms, like cell cycle arrest, reduced proliferation, and induction of apoptosis ([30]). Thus, the cell cycle profile of the human GBM cell line U87 treated with DMC-HA was analyzed by using flow cytometry. […] Although in control cells, only 4.6% of cells were in G2/M phase, 14.5% of cells in G2/M phase were found after treatment with 2.5 μM DMC-HA.

[1] = Hepatic microsome stability assay, rat; format: in vitro ADME; details: rat liver microsomes, NADPH, 37°C, pH 7.4
Procedure: (§1) Metabolic stability was assessed in the presence of human, mouse, and rat liver microsomes (XenoTech, Lenexa, KS, USA). All liquid dispenses and transfer steps were performed with the Freedom Evo automated liquid handler (Tecan US). Compound stock solutions were initially prepared in 100% DMSO and subsequently diluted in acetonitrile for the assay. The pH of the reactions was kept at 7.4 with potassium phosphate buffer. The reaction wells were prepared by adding microsomes to a well and allowed to warm to 37°C. Then, compound was added to each well. The reactions were […] by adding cofactor reduced nicotinamide adenine dinucleotide phosphate (NADPH) to the reaction well containing microsomes and compounds. Negative controls received buffer only. Immediately after reactions started, 0-min aliquots were promptly collected and mixed in a separate well with ice cold acetonitrile to quench the reactions. The remainder of the reaction volume was incubated at 37°C with shaking. An additional aliquot was collected at 60 min after the start of the reaction and promptly quenched with ice cold acetonitrile. Samples were vortexed and centrifuged at 3,500 rpm for 10 min. The amount of compound in the supernatant was determined by liquid chromatography–tandem mass spectrometry (LC/MS/MS) (Thermo Fischer Scientific, San Jose, CA, USA), and the percent of parent compound remaining after 60 min was calculated. Results are the mean of each reaction triplicate, normalized to the internal standard, and expressed as the percent of compound remaining after the incubation time.
(§2) Structures that are active in vitro may not be potent in vivo due to their susceptibility to metabolism in the body. We then thoroughly examined the liver microsomal metabolic stability of DMC-HA across three different species (Table 3). […] In addition, the half-life of DMC-HA in human microsome is generally two to three times longer than those in mice and rats. Collectively, the in vitro liver microsomal stability of DMC-HA is favorable, guaranteeing its further in vivo studies.

HDAC5 = HDAC5 (Homo sapiens, UniProt Q9UQL6); experiment: HDACs inhibition assay, HDAC5
Procedure: as §3

[2] = system: Human glioma cell line SHG44; experiment: MTT cell viability assay, SHG44; format: cell-based; details: SHG-44, MTT, 72 h, read-out: IC50 antiproliferative activity SHG44
Procedure: Cell viability was measured using the 3-(4,5-dimethylthiazol-2-yl)-2,5-diphenyltetrazolium bromide (MTT) assay and was expressed as a ratio to the absorbance value at 570 nm of the control cells.

HDAC11 = HDAC11 (Homo sapiens, UniProt Q96DB2); experiment: HDACs inhibition assay, HDAC11
Procedure: as §3

HDAC1 = HDAC1 (Homo sapiens, UniProt Q13547); experiment: HDACs inhibition assay, HDAC1
Procedure: as §3

[3] = Hepatic microsome stability assay, human; format: in vitro ADME; details: human liver microsomes, NADPH, 37°C, pH 7.4
Procedure: as §1, §2

[4] = Pharmacokinetic study in mice; format: in vivo, SD mice; details: plasma; for Tmax: 10 mg/kg
Procedure: The animal studies were approved by the Institutional Animal Care and Used Committee. The pharmacokinetic study of DMC-HA was carried out with female SD mice. The compound (2.0 mM) was suspended in DMSO (10%) and Tween 80 (10%) in PBS (80%). A single dose of 1 mg/kg was administrated by intravenous injection (n = 3 mice), followed by blood collection via retro-orbital bleeding at 0.25, 0.5, 2.0, 4.0, 8.0, 12.0, and 24 h. Whole blood samples were added to a tube containing ethylenediaminetetraacetic acid (EDTA) and centrifuged. Plasma was collected and stored at −20°C. Compound standards were prepared with pooled plasma samples. Fifty microliters of thawed plasma and standards were added into wells of Ostro Pass-Through Sample Preparation Plate (Waters) for solid phase extraction. Acetonitrile (150 μl) containing internal standard was added and mixed by pipette. Next, clear sample solution was eluted by positive pressure processor under 60 psi for 5 min. The sample solution can be used directly for LC-MS/MS analysis.
The preliminary in vivo pharmacokinetic study for DMC-HA was performed in mice. SD mice were intravenously injected with 1 mg/kg DMC-HA or orally administrated with 10 mg/kg DMC-HA. Plasma samples were collected and analyzed with LC-MS/MS.

U87 tumor xenograft = details: nude mice, 20 mg/kg once daily
Excerpt: Six-week-old BALB/c nude mice were purchased from Shanghai Experimental Animal Center of Chinese Academy of Science (Shanghai, China). All animal protocols were implemented according to the guidelines of the Association for Assessment and Accreditation of Laboratory Animal Care. U87 cells (3 × 10^6) were subcutaneously implanted into the right flank of mice. After 6 days of tumor growth, tumors grew to approximately 100 mm^3, and mice were randomly divided into three groups with nine animals in each group. […] The control group was intraperitoneally injected an equal volume of DMSO. Body weights and tumor volumes were measured every 2 days. After treatment, all of the mice were sacrificed, and the tumors were harvested, weighted, and photographed. The tumor volume was calculated according the formula: tumor volume = (length × width^2)/2.
U87 cells were subcutaneously inoculated into the right flank of mice.

HDAC8 = HDAC8 (Homo sapiens, UniProt Q9BY41); experiment: HDACs inhibition assay, HDAC8
Procedure: as §3

[5] = female, SD, mouse, iv, i.v. 1 mg/kg
[6] = female, SD, mouse, po, p.o. 10 mg/kg

HDAC8, sequence (Q9BY41 whole entry): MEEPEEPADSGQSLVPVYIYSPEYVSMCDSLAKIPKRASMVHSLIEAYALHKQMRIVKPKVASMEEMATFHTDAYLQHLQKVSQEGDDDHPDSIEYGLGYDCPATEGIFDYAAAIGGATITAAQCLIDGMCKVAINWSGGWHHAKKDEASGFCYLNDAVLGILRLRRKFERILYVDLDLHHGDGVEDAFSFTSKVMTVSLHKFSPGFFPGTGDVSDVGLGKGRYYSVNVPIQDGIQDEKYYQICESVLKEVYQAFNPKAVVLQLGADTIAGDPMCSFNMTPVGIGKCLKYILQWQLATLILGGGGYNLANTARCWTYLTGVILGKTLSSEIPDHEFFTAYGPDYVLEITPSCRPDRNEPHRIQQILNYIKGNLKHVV
HDAC5, sequence (Q9UQL6 whole entry): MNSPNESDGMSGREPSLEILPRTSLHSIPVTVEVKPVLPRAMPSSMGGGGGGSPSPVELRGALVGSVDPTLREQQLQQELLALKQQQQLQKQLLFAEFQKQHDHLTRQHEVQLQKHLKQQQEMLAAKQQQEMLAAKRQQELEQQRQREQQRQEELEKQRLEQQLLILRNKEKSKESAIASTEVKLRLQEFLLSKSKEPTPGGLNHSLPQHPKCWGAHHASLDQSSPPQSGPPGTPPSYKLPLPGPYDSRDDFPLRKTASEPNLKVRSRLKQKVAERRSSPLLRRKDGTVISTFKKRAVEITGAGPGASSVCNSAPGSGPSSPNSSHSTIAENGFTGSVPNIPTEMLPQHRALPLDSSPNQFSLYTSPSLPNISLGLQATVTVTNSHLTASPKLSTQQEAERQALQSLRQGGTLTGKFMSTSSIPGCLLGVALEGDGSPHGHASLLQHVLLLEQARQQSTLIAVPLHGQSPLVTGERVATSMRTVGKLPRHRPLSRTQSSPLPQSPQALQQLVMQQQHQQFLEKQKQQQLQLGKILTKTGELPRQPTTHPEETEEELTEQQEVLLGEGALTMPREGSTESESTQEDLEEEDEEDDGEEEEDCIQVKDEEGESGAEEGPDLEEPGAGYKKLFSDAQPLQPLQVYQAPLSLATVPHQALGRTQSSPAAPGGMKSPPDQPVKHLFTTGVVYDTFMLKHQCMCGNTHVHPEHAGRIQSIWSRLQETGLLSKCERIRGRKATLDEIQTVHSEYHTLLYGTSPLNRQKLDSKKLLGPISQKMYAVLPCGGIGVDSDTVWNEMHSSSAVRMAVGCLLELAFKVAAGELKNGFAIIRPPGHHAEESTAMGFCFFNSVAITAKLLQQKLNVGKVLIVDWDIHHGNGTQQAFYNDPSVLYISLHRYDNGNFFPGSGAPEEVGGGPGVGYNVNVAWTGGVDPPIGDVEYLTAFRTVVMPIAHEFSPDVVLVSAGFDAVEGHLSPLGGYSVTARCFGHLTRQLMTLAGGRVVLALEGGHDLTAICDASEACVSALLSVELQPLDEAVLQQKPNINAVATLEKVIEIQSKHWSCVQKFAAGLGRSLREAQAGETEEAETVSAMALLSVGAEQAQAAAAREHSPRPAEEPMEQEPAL
HDAC11, sequence (Q96DB2 whole entry): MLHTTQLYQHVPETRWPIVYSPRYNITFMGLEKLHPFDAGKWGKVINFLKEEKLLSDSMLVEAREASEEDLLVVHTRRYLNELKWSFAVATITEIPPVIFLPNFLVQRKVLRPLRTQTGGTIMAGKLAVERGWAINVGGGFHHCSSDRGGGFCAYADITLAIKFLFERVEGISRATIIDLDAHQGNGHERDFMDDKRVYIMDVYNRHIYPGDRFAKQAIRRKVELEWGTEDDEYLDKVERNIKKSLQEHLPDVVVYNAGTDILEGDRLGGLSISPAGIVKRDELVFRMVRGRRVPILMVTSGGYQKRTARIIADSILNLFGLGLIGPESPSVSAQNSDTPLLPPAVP
HDAC1, sequence (Q13547 whole entry): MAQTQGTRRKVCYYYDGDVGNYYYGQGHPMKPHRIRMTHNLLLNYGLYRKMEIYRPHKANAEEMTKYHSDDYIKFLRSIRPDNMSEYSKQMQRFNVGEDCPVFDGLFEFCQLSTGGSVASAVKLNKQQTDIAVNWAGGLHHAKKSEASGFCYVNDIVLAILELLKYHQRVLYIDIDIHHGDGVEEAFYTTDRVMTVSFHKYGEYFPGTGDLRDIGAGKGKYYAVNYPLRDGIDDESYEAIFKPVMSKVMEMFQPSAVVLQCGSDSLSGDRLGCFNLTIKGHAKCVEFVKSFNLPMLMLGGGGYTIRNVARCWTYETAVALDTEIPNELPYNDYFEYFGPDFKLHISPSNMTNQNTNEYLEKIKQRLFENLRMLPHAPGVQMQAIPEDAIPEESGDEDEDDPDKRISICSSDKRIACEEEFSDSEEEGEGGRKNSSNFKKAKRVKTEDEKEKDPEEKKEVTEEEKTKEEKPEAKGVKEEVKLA
HDAC3, sequence (O15379 whole entry): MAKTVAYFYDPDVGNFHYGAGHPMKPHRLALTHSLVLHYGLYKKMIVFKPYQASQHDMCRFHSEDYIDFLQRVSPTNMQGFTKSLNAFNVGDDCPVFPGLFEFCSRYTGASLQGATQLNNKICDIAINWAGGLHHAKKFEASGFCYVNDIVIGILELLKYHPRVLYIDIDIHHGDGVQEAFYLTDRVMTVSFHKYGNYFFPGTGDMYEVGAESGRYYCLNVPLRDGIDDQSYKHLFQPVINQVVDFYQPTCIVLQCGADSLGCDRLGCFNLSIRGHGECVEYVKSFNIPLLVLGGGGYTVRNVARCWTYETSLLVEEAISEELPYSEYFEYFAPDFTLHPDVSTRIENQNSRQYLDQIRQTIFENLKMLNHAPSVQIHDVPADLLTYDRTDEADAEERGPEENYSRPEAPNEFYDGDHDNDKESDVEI
HDAC3, sequence (Q9Y618 395-489 partner limits assumed): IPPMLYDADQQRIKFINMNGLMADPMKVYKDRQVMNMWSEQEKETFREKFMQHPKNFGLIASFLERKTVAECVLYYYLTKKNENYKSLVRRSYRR

COc1cc(/C=C/C(=O)CC(=O)/C=C/c2ccc(/C=C/C(=O)NO)cc2)ccc1O [DMC-HA]
IC50 (HDAC3): 1670 nM
cells in G2/M phase (U87 cells): 14.5%
Rat Liver Microsomal Stability T1/2 [1]: 0.678 h
microsomal CLint [1]: 34.2 µL/min/mg
IC50 (HDAC5): > 10000 nM
IC50 [2]: 4620 ± 720 nM
IC50 (HDAC11): > 10000 nM
IC50 (HDAC1): 510 nM
Human Liver Microsomal Stability T1/2 [3]: 1.53 h
microsomal CLint [3]: 17.5 µL/min/mg
AUC(0-inf) [4, 5]: 502 ng·h/mL
AUC(0-t) [4, 5]: 493 ng·h/mL
clearance [4, 5]: 30 mL/min/kg
half-life [4, 5]: 3.2 h
bioavailability ([4]; female, SD, mouse, oral, p.o. 10 mg/kg vs i.v. 1 mg/kg, read-out: F (oral bioavailability)): 40.2%
Tmax ([4]; female, SD, mouse, po, p.o. 10 mg/kg, read-out: Tmax): 0.67 h
Tmax ([4]; female, SD, mouse, po, p.o. 10 mg/kg, read-out: time of peak concentration (converted)): ~0.667 h
AUC(0-inf) [4, 6]: 2010 ng·h/mL
AUC(0-t) [4, 6]: 1980 ng·h/mL
Cmax [4, 6]: 1070 ng/mL
half-life [4, 6]: 4.1 h
Cl ([4]; p.o. 10 mg/kg): 145 mL/min/kg
peak concentration ([4]; p.o. 10 mg/kg): about 1.0 μg/ml
effects on the body weight (U87 tumor xenograft): no effects on the body weight
toxicity during the administration period (U87 tumor xenograft): no observable toxicity
tumor weight (U87 tumor xenograft; compared with controls): significantly lower tumor weight
inhibition on the tumor volume (U87 tumor xenograft; oral route / intraperitoneal, vs. control): 52.1%
IC50 (HDAC8): 2930 nM
